In patent US5834318A, “Screening of combinatorial peptide libraries for selection of peptide ligand useful in affinity purification of target proteins” (Bayer Corporation, priority 1995, dated 1998):
Where no end group is shown, it is not given here.

Legend:
Factor IX zymogen [1] = molecular target: T1, Factor IX zymogen (Homo sapiens, UniProt P00740); test: Plasma-derived Factor IX affinity chromatography; type: binding; parameters: A 1.0 ml injection of human citrated plasma was contacted with an acetyl-YANKGY-TSK column; from tissue; host or cells: human citrated plasma; conditions: 1.0 ml human citrated plasma
Description: (§1) Affinity Purification of Target Protein Affinity purification of target protein was used to assess the ability to purify proteins with the peptide sequences identified as being specific. […] The deprotected peptide-resin was dry packed into a blank column as described above and washed with 20 column volumes of 20% methanol/water, then 10 column volumes of Buffer A, and assayed by sequential 1.0 mL injections of 1) Buffer A blank, 2) 0.5% HSA, and 3) target protein in 0.5% HSA. Non-specifically bound proteins were washed off the column in a step gradient of 1.0M NaCl for two column volumes, and the target protein was eluted from the column in a weak acid solution.
Plasma-Derived Factor IX Affinity Chromatography The relevance of this library-derived peptide ligand is to purify human Factor IX zymogen from unpurified human plasma. A 1.0 ml injection of human citrated plasma was contacted with an acetyl-YANKGY-TSK column in the manner taught in the above example. Flow through and acid peaks were collected on ice and immediately assayed for total protein, SDS-PAGE and Western blot analyses. […] Samples were normalized to total protein as described before. There are numerous protein bands in the starting material, the predominant being albumin. The Factor IX band is not visible in any fraction in the Commassie stained gel. […] With one pass over the YANKGY-TSK affinity column, analyzing total protein and by Western blot, the approximate purification was 200 fold from plasma.

streptavidin = streptavidin (Streptomyces avidinii, UniProt P22629); conditions: well known in the art; cited from earlier work
[2] = molecular target: T2, human serum albumin (HSA) (Homo sapiens, UniProt P02768); test: Binding of carrier protein to peptide-resin column; conditions: 0.5% HSA; eluted by the salt wash, no peak during acid elution
T2 construct: purchased Miles, Inc., Clayton, N.C
Description: as §1
(§2) Factor IX/Albumin Affinity Purification The library-derived peptide identified above binds and purifies a mixture of a commercially available, highly purified Factor IX zymogen in a solution of human serum albumin. […] This peptide-resin was tested for its ability to bind Factor IX. […] However, this was eluted by the salt wash as evidenced by the absence of a peak during the acid elution. In contrast, when Factor IX was added to the HSA, there was a distinct peak eluted by the acid.

Factor IX zymogen [3] = molecular target: T1, Factor IX zymogen; test: Factor IX/albumin affinity purification on peptide-resin column; type: binding; parameters: purchased Enzyme Research Labs; South Bend, Ind
Description: as §1, §2
A direct correlation was seen between the acid peak area and the amount of Factor IX injected. […] Aliquots of fractions taken from this run were assayed for Factor IX detection by ELISA (data not shown). […] Factor IX may be partially denatured during the acid elution which could account for the lack of full recovery based on ELISA results. Indeed, controls of adding acid to Factor IX prior to analysis in the ELISA do show a 40 to 50% decrease in the ELISA signal. The remainder of the fractions were precipitated in cold (-20° C.) acetone and analyzed by reducing SDS-PAGE, normalizing sample to total protein.

Factor IX zymogen [4] = molecular target: T1, Factor IX zymogen; test: Two color peptide library immunostaining chromatography of hexamer library; type: binding; parameters: purchased Enzyme Research Labs; South Bend, Ind; conditions: 6 beads isolated from two independent analyses
Description: (§3) HPLC Library Immuno-Assays To differentiate between detecting reagent-binding and target-binding peptide-resin beads, we developed a two color peptide library staining chromatography technique. FIG. 1 is a schematic of the preferred embodiment of the technique. All assays were performed on an Ultrafast Microprotein Analyzer in a 2.1 mm I.D.×150mm long stainless steel column (volume=520 μL) at 37° C. Dry library resin was packed into the column by vacuum, then the column was attached to the detector flow cell and washed with 20 column volumes of 20% methanol/water, 5 column volumes of 100% Buffer A (10 mM HEPES, 100 mM NaCl, 2.5 mM CaCl2, 20 mg/mL D-mannitol; all from Sigma Chemical Co.; St. Louis, Mo.), then 5 column volumes of 50% Buffer B (Buffer A with 1.0M NaCl) to clean the resin. The complete assay comprised of seven chromatography injection programs sequentially linked and executed as a batch (EXChrom Chromatography Data System, Scientific Software, Inc.; San Ramon, Calif.). Each injection program was 90 min long. At the start of each injection program, a 1.0 mL sample loop of reagent was injected at 200 μL/min for 3.5 min, then allowed to perfuse the column at 5 μL/min for 50 min before the flow increased to 400/μL/min for the duration of the run. At 60-75 min, a salt gradient from 0.1M to 1.0M NaCl eluted non-specific binding proteins. […]

RNase S protein = molecular target: T3, RNase S protein (Bos taurus, UniProt P61823); test: HPLC affinity chromatography validation on peptide-resin; type: binding; conditions: 42 nmoles RNase S protein injected; 2 % acetic acid wash, peak at 22 min
T3 sequence (P61823 47-150 limits assumed): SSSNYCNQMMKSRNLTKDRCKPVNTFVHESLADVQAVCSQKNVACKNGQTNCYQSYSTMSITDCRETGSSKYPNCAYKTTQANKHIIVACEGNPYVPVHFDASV
Description: as §1
Ribonuclease S Protein Affinity Chromatography In this embodiment the HPLC affinity methodology is validated by the previously described RNase S protein/YNFEVL peptide system. Peptide synthesis was performed as taught in the previous section. […] 42 nmoles of RNase S protein was injected in a 1.0 mL volume onto the column at 200 μL/min for 3 min. The flow was decreased to 5 μL/min for 5 min to perfuse the column, then increased to 400 μL/min to wash off the unbound protein. At 13 min, an injection of 1.0 mL Buffer A with 1.0M NaCl eluted non-specific binding proteins, then the column was returned to 0.1M NaCl until 19 min when a steep gradient to 2 % acetic acid in water and a flow of 800 μL/min began. […]

[5] = molecular target: T4, Ribonuclease S (RNase S) protein (Bos taurus, UniProt P61823); test: Two color peptide library immunostaining chromatography (HPLC library immunoassay), validation; type: binding; conditions: peptide-resin diluted 1:20 w/w with TSK-Blank
T4 sequence (P61823 47-150 limits assumed): T3 sequence (P61823 47-150 limits assumed)
Description: as §3

T1 sequence (P00740 29-461 limits assumed): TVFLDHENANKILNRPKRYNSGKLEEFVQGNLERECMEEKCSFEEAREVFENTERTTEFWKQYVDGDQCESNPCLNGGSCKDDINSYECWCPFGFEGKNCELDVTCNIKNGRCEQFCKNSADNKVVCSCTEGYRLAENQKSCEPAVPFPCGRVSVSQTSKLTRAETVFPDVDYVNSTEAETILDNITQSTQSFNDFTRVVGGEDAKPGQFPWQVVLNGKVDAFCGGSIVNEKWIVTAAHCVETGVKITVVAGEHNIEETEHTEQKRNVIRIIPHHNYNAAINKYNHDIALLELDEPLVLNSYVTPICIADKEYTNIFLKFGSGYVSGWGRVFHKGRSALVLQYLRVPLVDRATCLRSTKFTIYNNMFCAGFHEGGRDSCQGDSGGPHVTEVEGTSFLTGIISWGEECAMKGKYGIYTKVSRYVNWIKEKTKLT
T2 sequence (P02768 25-609): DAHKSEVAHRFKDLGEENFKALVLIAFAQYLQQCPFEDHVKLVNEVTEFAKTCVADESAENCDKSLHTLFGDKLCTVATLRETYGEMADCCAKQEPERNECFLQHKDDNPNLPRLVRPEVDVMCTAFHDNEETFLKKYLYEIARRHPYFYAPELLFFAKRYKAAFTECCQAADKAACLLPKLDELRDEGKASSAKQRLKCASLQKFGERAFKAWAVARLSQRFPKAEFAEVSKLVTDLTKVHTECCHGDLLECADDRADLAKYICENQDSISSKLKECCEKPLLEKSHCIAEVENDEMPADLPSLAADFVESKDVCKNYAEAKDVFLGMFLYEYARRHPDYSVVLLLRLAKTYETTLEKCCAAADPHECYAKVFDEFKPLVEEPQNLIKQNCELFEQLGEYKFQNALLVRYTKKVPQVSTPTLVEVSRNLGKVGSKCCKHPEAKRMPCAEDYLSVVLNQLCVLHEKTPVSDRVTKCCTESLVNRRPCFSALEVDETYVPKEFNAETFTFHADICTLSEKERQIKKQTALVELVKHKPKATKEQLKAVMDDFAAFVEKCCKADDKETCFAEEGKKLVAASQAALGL
Chain of streptavidin (P22629 25-183, species assumed): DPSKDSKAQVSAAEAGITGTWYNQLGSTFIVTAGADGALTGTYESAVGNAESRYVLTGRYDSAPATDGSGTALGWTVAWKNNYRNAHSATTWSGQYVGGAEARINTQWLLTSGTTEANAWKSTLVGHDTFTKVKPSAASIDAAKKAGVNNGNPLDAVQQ

With Ac-YANKGY [acetyl-YANKGY-TSK] the “Factor IX in acid peak by Western blot” value (Factor IX zymogen [1]) was “a very large band in the acid peak” and the “Factor IX in flow through by Western blot” value (Factor IX zymogen [1]) was “no Factor IX in the flow through”.

In the case of HPQ, the binding to streptavidin (streptavidin) is listed as “will bind streptavidin”.

In the case of YANKGY [YANKGY-TSK], the “HSA binding to column” value [2] is reported as “bound to the column to a small extent”, the “Factor IX detected in NaCl peak by ELISA, % of amount injected” value (Factor IX zymogen [3]; 220 μg Factor IX in HSA) is reported as 17% and the “Factor IX detected in acid peak by ELISA, % of amount injected” value (Factor IX zymogen [3]; 220 μg Factor IX in HSA) is reported as 25%. The “Factor IX detected in flow through peak by ELISA” value (Factor IX zymogen [3]; 220 μg Factor IX in HSA) was “No Factor IX was detected”, the “Factor IX in NaCl wash and acid peak by Western blot” value (Factor IX zymogen [3]; 220 μg Factor IX in HSA) was “dark bands corresponding to Factor IX” and the “Factor IX in flow-through fractions by Western blot” value (Factor IX zymogen [3]; 220 μg Factor IX in HSA) was “no detectable Factor IX”. The “binding of Factor IX to peptide-resin” value (Factor IX zymogen [3]; Factor IX in 0.5% HSA, acid elution) was “does bind Factor IX”, the “bead staining in library immunoassay (red = target specific)” value (Factor IX zymogen [4]) was “red bead” and the “approximate purification of Factor IX from plasma” value (Factor IX zymogen [1]; one pass, by total protein and Western blot) was ~200 fold.

For YNFEVL [YNFEVL-TSK], the “elution of bound RNase S protein” value (RNase S protein) was “target protein eluted in the acid wash”, the “frequency of dark blue beads (non-specific or immunoreagent-specific interactions)” value [5] was “less than 0.01%” and the “frequency of red beads (target protein interacting with peptide-resin beads)” value ([5]; RNase S protein in HSA carrier) was 5%.

In the case of YNYFNQ, the “bead staining in library immunoassay (red = target specific)” value (Factor IX zymogen [4]) is reported as “red bead”.
